Earlier results on one molecule are cited in patent US20050095288A1, “Decongestant and expectorant tablets” (Andrx Labs, LLC, priority 2003, published 2005).

The conditions of this data set: background statement, no test described.

With `COc1ccccc1OCC(O)CO` (stereo not shown) [Guaifenesin, 3-(2-methoxyphenoxy)-1,2-propane-diol], the typical plasma half-life result is “approximately one”.
